Experimental data from patent US10519147B2 (Merck Sharp & Dohme Corp., priority 2015, dated 2019).

Legend:
human Nav1.5 = target: T1, human Nav1.5 (Homo sapiens, UniProt Q14524); experiment: IonWorks Quattro automated patch-clamp, Nav1.5 (selectivity against Nav1.7); assay type: cell-based; details: IonWorks measurement, HEK 293 cells, inactivated state block
T1 construct: expressed in transfected cells; host or cells: HEK 293

human Nav1.7 = target: T2, human Nav1.7 (Homo sapiens, UniProt Q15858); experiment: IonWorks Quattro automated patch-clamp, inactivated state block of Nav1.7; assay type: cell-based; details: channels stably expressed in HEK 293 cells; double-pulse protocol, inactivated state block; read-out: potency for the Nav 1.7 sodium ion channel (IC50, as measured by IonWorks)
T2 construct: expressed in transfected cells; host or cells: HEK 293
How it was run: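 HEK293 stable lines, IonWorks PPC patch clamp (nystatin/amphotericin access); double-pulse protocol giving ~50% inactivation: holding −100 mV (Nav1.7) or −110 mV (Nav1.5), 1000 ms prepulse to −10 or −30 mV, 10 ms repolarization, 10 ms test pulse. Peak current inhibition versus concentration fitted to Hill equation for IC50.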

T2 sequence (Q15858 whole entry): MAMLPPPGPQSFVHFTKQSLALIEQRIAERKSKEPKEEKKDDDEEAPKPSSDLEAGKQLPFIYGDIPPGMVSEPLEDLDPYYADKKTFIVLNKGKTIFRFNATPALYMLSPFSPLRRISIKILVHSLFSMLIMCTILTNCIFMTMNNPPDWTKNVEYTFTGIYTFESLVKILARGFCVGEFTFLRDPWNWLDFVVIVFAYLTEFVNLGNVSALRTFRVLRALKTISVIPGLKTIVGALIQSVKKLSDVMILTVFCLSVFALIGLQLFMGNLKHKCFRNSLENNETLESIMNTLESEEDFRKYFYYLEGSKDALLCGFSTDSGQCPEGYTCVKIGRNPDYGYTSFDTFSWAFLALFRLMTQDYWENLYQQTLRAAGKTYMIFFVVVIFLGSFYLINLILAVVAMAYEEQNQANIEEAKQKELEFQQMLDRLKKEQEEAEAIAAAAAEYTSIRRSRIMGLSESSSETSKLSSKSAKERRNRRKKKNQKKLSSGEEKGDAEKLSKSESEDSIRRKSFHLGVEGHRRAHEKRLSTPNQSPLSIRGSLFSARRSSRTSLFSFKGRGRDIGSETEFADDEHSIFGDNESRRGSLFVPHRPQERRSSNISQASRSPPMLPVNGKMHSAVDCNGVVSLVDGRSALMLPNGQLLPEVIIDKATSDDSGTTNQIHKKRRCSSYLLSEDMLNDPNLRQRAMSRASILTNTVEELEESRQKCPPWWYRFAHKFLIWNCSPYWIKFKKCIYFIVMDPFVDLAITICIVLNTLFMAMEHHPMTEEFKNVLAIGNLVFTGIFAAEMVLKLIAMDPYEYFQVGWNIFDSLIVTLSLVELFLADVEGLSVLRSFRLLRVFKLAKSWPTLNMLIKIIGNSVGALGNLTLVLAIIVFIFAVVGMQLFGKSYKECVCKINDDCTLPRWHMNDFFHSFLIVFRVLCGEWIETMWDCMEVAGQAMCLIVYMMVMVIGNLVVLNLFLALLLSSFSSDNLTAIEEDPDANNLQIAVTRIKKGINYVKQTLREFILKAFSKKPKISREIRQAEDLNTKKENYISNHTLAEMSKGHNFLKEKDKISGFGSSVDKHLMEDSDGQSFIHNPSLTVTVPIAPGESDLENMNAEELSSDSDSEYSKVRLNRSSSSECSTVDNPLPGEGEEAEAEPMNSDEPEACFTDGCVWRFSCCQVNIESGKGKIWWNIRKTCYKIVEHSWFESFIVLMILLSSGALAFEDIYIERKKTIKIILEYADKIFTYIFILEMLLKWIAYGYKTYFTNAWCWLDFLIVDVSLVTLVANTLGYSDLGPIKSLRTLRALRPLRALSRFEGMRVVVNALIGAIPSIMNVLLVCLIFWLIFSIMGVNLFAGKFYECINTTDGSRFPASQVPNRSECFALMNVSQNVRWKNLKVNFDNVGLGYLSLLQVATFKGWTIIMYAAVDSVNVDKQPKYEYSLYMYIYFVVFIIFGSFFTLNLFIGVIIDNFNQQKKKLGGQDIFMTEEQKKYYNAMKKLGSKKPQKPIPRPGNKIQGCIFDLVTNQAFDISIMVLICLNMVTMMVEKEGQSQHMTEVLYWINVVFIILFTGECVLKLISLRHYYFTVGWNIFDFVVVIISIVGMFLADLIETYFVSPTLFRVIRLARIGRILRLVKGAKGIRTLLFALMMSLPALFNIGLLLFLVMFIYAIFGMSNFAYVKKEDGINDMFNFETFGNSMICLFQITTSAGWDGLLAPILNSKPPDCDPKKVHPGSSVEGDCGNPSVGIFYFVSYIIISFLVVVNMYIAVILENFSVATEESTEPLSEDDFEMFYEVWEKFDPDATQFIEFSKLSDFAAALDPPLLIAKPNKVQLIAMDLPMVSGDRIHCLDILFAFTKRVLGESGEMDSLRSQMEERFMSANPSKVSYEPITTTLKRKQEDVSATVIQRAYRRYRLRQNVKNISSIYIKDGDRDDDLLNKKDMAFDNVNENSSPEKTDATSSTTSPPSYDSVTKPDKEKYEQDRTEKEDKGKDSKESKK
T1 sequence (Q14524 whole entry): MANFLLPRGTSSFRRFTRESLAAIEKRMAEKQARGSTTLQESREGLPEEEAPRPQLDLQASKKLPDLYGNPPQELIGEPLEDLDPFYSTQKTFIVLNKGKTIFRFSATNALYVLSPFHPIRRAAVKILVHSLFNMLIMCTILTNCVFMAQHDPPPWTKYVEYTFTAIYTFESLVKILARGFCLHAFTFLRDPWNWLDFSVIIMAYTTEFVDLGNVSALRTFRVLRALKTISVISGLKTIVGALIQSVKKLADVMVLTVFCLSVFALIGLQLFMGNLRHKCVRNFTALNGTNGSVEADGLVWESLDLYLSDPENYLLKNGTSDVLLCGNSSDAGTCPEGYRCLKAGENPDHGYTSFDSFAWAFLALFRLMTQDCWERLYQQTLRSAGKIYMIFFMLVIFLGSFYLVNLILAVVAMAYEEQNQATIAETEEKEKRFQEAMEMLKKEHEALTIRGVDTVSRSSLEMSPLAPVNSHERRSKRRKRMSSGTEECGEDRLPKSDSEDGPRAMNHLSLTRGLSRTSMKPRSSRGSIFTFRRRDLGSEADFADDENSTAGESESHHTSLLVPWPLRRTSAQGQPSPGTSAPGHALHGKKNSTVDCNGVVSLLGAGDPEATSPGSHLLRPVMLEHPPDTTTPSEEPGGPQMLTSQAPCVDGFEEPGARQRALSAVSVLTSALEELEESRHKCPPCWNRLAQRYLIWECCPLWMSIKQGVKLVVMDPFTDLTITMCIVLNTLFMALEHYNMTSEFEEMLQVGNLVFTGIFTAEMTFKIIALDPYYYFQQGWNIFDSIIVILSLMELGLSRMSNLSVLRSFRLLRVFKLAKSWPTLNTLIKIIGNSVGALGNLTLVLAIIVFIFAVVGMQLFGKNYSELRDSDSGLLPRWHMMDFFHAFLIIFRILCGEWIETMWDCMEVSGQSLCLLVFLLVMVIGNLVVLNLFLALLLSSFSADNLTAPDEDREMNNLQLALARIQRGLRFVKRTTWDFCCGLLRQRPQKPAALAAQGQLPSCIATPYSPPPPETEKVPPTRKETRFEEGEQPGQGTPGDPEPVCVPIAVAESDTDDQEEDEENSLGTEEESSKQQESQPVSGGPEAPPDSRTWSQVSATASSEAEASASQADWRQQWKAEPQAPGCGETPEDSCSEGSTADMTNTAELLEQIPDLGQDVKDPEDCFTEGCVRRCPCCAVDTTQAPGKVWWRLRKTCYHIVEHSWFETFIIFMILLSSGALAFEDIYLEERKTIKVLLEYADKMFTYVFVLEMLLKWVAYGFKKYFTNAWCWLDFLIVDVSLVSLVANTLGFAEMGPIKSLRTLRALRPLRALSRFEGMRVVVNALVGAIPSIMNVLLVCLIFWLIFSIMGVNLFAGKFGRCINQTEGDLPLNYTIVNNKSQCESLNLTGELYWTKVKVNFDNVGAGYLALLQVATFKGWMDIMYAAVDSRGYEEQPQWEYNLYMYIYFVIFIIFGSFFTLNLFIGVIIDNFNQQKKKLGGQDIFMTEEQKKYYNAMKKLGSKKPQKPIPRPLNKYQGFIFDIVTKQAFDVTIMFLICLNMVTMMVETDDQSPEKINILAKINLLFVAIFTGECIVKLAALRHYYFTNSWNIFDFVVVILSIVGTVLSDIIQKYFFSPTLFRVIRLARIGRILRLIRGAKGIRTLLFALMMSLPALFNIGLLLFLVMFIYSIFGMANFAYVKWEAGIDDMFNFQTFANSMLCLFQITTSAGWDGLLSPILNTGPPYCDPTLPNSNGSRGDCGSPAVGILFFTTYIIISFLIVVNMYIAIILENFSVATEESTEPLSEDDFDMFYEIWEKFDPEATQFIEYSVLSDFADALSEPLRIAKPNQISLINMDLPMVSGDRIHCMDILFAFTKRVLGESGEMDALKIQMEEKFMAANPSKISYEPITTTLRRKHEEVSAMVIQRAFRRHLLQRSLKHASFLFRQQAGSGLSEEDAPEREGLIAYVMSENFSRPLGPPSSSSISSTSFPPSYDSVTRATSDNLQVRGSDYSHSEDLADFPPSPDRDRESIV

O=S(=O)(Nc1ncns1)c1cc(Br)c(NCCCCNC[C@H]2CCN2)cc1F [Ex 16-77, 4-[(4-{[(2R)-azetidin-2-ylmethyl]amino}butyl)amino]-5-bromo-2-fluoro-N-1,2,4-thiadiazol-5-ylbenzenesulfonamide]
ratio of Nav 1.7 potency:Nav 1.5 potency (human Nav1.5): > 1380
IC50 (human Nav1.7): 24 nM

N[C@@H]1CCC[C@@H]1NCCCCNc1cc(F)c(S(=O)(=O)Nc2nccs2)cc1Cl [Ex 1-29, 4-[(4-{[(1S,2R)-2-aminocyclopentyl]amino}butyl)amino]-5-chloro-2-fluoro-N-1,3-thiazol-2-ylbenzenesulfonamide]
ratio of Nav 1.7 potency:Nav 1.5 potency (human Nav1.5): > 635
IC50 (human Nav1.7): 52 nM

C[C@@H](N)CNCCCCNc1cc(F)c(S(=O)(=O)Nc2ncns2)cc1Br [Ex 16-99, 4-[4-[[(2R)-2-aminopropyl]amino]butylamino]-5-bromo-2-fluoro-N-(1,2,4-thiadiazol-5-yl)benzenesulfonamide]
ratio of Nav 1.7 potency:Nav 1.5 potency (human Nav1.5): 3900
IC50 (human Nav1.7): 5.9 nM

NCCNCCCCNc1cc(F)c(S(=O)(=O)Nc2ncns2)cc1Br [Ex 16-88, 4-[4-(2-aminoethylamino)butylamino]-5-bromo-2-fluoro-N-(1,2,4-thiadiazol-5-yl)benzenesulfonamide]
ratio of Nav 1.7 potency:Nav 1.5 potency (human Nav1.5): > 3400
IC50 (human Nav1.7): 9.6 nM

C[C@H](N)CNCCCCNc1cc(F)c(S(=O)(=O)Nc2nccs2)cc1Cl [Ex 16-12, 4-[(4-{[(2S)-2-aminopropyl]-amino}butyl)amino]-5-chloro-2-fluoro-N-1,3-thiazol-2-yl-benzene-sulfonamide]
ratio of Nav 1.7 potency:Nav 1.5 potency (human Nav1.5): > 2540
IC50 (human Nav1.7): 13 nM

NCCNCCCCNc1cc(F)c(S(=O)(=O)Nc2ncc(F)s2)cc1Cl [Ex 16-57, 4-({4-[(2-aminoethyl)-amino]butyl}amino)-5-chloro-2-fluoro-N-(5-fluoro-1,3-thiazol-2-yl) benzene-sulfonamide]
ratio of Nav 1.7 potency:Nav 1.5 potency (human Nav1.5): > 4400
IC50 (human Nav1.7): 7.5 nM

N[C@@H]1CCC[C@H]1NCCCCNc1cc(F)c(S(=O)(=O)Nc2nccs2)cc1Cl [Ex 16-09]
ratio of Nav 1.7 potency:Nav 1.5 potency (human Nav1.5): > 3590
IC50 (human Nav1.7): 9.2 nM

CNCCCNCCCCNc1cc(F)c(S(=O)(=O)Nc2ncc(F)s2)cc1Cl [Ex 16-28, 5-chloro-2-fluoro-N-(5-fluoro-1,3-thiazol-2-yl)-4-[(4-{[3-(methylamino)-propyl]amino}butyl)amino]-benzenesulfonamide]
ratio of Nav 1.7 potency:Nav 1.5 potency (human Nav1.5): > 1320
IC50 (human Nav1.7): 25 nM

CNCCNCCCCNc1cc(F)c(S(=O)(=O)Nc2ncns2)cc1Cl [Ex 16-48, 5-chloro-2-fluoro-4-[(4-{[2-(methylamino)ethyl]amino}-butyl)amino]-N-1,2,4-thiadiazol-5-ylbenzene-sulfonamide]
ratio of Nav 1.7 potency:Nav 1.5 potency (human Nav1.5): > 3750
IC50 (human Nav1.7): 8.8 nM

C[C@@H](N)CNCCCCNc1cc(F)c(S(=O)(=O)Nc2ncc(F)s2)cc1Cl [Ex 16-06, 4-[(4-{[(1R,2R)-2-aminopropyl]amino}-butyl)amino]-5-chloro-2-fluoro-N-(5-fluoro-1,3-thiazol-2-yl)benzene-sulfonamide]
ratio of Nav 1.7 potency:Nav 1.5 potency (human Nav1.5): > 4070
IC50 (human Nav1.7): 8.1 nM

O=S(=O)(Nc1ncns1)c1cc(Cl)c(NCCCCNC[C@H]2CCCN2)cc1F [Ex 16-17, 5-chloro-2-fluoro-4-[(4-{[(2R)-pyrrolidin-2-yl-methyl]amino}butyl)amino]-N-1,2,4-thiadiazol-5-yl-benzenesulfonamide]
ratio of Nav 1.7 potency:Nav 1.5 potency (human Nav1.5): > 3980
IC50 (human Nav1.7): 8.3 nM

N[C@H]1CC[C@H](NCCCCNc2cc(F)c(S(=O)(=O)Nc3ncns3)cc2Br)C1 [Ex 16-95, 4-[4-[[(1S,3S)-3-aminocyclopentyl]amino]butylamino]-5-bromo-2-fluoro-N-(1,2,4-thiadiazol-5-yl)benzenesulfonamide]
ratio of Nav 1.7 potency:Nav 1.5 potency (human Nav1.5): > 940
IC50 (human Nav1.7): 35 nM

C[C@@H](CN)NCCCCNc1cc(F)c(S(=O)(=O)Nc2nccs2)cc1Cl [Ex 16-68, 4-[(4-{[(1S)-2-amino-1-methylethyl]amino}butyl)amino]-5-chloro-2-fluoro-N-1,3-thiazol-2-ylbenzenesulfonamide]
ratio of Nav 1.7 potency:Nav 1.5 potency (human Nav1.5): > 1650
IC50 (human Nav1.7): 20 nM

NC1CCC1NCCCCNc1cc(F)c(S(=O)(=O)Nc2ncns2)cc1Cl (single isomer, unassigned) [Ex 16-82, 4-[4-[[(1S,2S) or (1R,2R)-2-aminocyclobutyl]amino]butylamino]-5-chloro-2-fluoro-N-(1,2,4-thiadiazol-5-yl) benzenesulfonamide]
ratio of Nav 1.7 potency:Nav 1.5 potency (human Nav1.5): > 10000
IC50 (human Nav1.7): 3.3 nM

C[C@H](N)CNCCCCNc1cc(F)c(S(=O)(=O)Nc2ncns2)cc1Br [Ex 16-80, 4-[4-[[(2S)-2-aminopropyl]amino]butylamino]-5-bromo-2-fluoro-N-(1,2,4-thiadiazol-5-yl)benzenesulfonamide]
ratio of Nav 1.7 potency:Nav 1.5 potency (human Nav1.5): > 10600
IC50 (human Nav1.7): 3.1 nM

CC(C)(CCN)NCCCCNc1cc(F)c(S(=O)(=O)Nc2ncc(F)s2)cc1Cl [Ex 16-27, 4-({4-[(3-amino-1,1-dimethylpropyl)amino]butyl}amino)-5-chloro-2-fluoro-N-(5-fluoro-1,3-thiazol-2-yl)-benzenesulfonamide]
ratio of Nav 1.7 potency:Nav 1.5 potency (human Nav1.5): > 1737
IC50 (human Nav1.7): 19 nM

C[C@H](CN)NCCCCNc1cc(F)c(S(=O)(=O)Nc2ncc(F)s2)cc1Cl [Ex 16-59, 4-[(4-{[(1R)-2-amino-1-methylethyl]amino}butyl)-amino]-5-chloro-2-fluoro-N-(5-fluoro-1,3-thiazol-2-yl)-benzenesulfonamide]
ratio of Nav 1.7 potency:Nav 1.5 potency (human Nav1.5): > 1941
IC50 (human Nav1.7): 17 nM

O=S(=O)(Nc1ncns1)c1cc(Cl)c(NCCCCNCC[C@H]2CCCN2)cc1F [Ex 16-20, 5-chloro-2-fluoro-4-{[4-({2-[(2R)-pyrrolidin-2-yl]ethyl}-amino)butyl]amino}-N-1,2,4-thiadiazol-5-ylbenzene-sulfonamide]
ratio of Nav 1.7 potency:Nav 1.5 potency (human Nav1.5): > 412
IC50 (human Nav1.7): 80 nM

N[C@@H]1CCC[C@@H]1NCCCCNc1cc(F)c(S(=O)(=O)Nc2ncns2)cc1Br [Ex 16-93, 4-[4-[[(1S,2R)-2-aminocyclopentyl]amino]butylamino]-5-bromo-2-fluoro-N-(1,2,4-thiadiazol-5-yl)benzenesulfonamide]
ratio of Nav 1.7 potency:Nav 1.5 potency (human Nav1.5): > 800
IC50 (human Nav1.7): 41 nM
